{"source": "paper PMC2821522", "about": "(Journal of Clinical Immunology, 2009)", "format_in_all_cases": "cell-based, human", "key": {"[1]": {"tested_on": "expanded sarcoidosis CD4+ T cell lines; antigen presented by Sweig cells (HLA DRB1*1101 and DRB3*0202)"}, "[2]": {"tested_on": "PBMC (immune recognition, gamma interferon-secreting T cells)"}, "[3]": {"tested_on": "CD4+ T cells", "assay": "Flow cytometry / intracellular cytokine staining, CD4+ T cells", "settings": "sarcoidosis subjects, in words, Fig. 1"}}, "note": "Like-named read-outs stand apart in the source and are kept apart here.", "data": [{"sequence": "WTNTPTKWDNSFLEI [katG peptide 13]", "values": [{"measurement": "immune response (CD4+ IFN-γ)", "setting": "[1]", "value": "minimal response"}, {"measurement": "immune response (CD4+ IFN-γ)", "setting": "[1]; katG-expanded line of Sarcoidosis 6, with Sweig cells, Fig. 4, listed as katG peptides", "value": "strong CD4+ responses"}, {"measurement": "subjects recognizing the peptide", "setting": "[2]", "value": "Seven of the eight"}, {"measurement": "subjects recognizing the peptide", "setting": "[2]; PPD− control subjects", "value": "none"}, {"measurement": "CD4+ T cell response", "setting": "[3]; listed as katG", "value": "CD4+ T cell recognition of katG was also detected"}, {"measurement": "CD4+ T cell response", "setting": "[3]; listed as katG peptide", "value": "strong CD4+ T cells response"}]}]}
